# Measurements as given in patent US8449788B2, “Leather finishing compositions comprising dioxolane derivatives” (Rhodia Poliamida e Especialidades Ltda, priority 2009, dated 2013).
# Like-named read-outs stand apart in the source and are kept apart here.
# Legend:
# [1] = Solubilization of a dye-metal complex; format: physicochemical
# Description: Solketal was tested to solubilize a dye-metal complex.
# [2] = cited from earlier work
# mouse = conditions: cited from earlier work
# [3] = cited from earlier work; remark: listed apart in the source
# [4] = cited from earlier work; remark: listed apart in the source
compound,measurement,setting,value
"CC1(C)OCC(CO)O1 (stereo not drawn) [Solketal, 2,2-dimethyl-1,3-dioxolane-4-methanol]",Performance as solvent for dye-metal complex,[1],"good compared to diacetone alcohol and methoxy propanol, and less effective compared to ethyldiglycol, ethylglycol, butyldiglycol and butylglycol"
same,Performance as solvent for dye-metal complex,[1]; listed as solketal,average
same,Solubility in water at 20° C.,[2],miscible
same,LD50 (oral/mouse mg/kg),mouse,7000 mg/kg
same,Reversion in slightly acid pH (biodegradability),[3],may revert into acetone and glycerin
same,Acute oral toxicity,[4],7.00
